Measurements as given in ChEMBL document CHEMBL3885861, “Open TG-GATES”.

Species: Rattus norvegicus
Experiment: Open TG-GATES - Regimen: Daily Repeat
Format: toxicity, organism-based, Sprague-Dawley
Parameters: regimen Daily Repeat, gender Male, age 6 weeks
Conditions: in vivo, po, 100 mg/kg, route gavage, dose level Middle; for APTT / Bas / Eos / Fbg / Hb / Ht / Lym / MCH / MCHC / MCV / Mono / Neu / PT / Plat / RBC / Ret / WBC: tissue Blood; for ALP / ALT / AST / BUN / CRE / DBIL / GLC / IP / K / Na / PL / RALB / TBIL / TC / TG / TP / gamma-GTP: tissue Plasma

## NS(=O)(=O)c1cc(C(=O)O)c(NCc2ccco2)cc1Cl [FUROSEMIDE]
72 h, time 3 day
  TERMINAL_BW: 230.7 g
  APTT: 16.9 s
  Bas: 0%
  Eos: 0.8%
  Fbg: 296.8 mg/dL
  Hb: 13.1 g/dL
  Ht: 38.3%
  Lym: 81.2%
  MCH: 21.4 pg
  MCHC: 34.1%
  MCV: 62.7 fL
  Mono: 2.2%
  Neu: 14.8%
  PT: 15 s
  Plat: 123 x10_4/uL
  RBC: 611.2 x10_4/ul
  Ret: 4.2%
  WBC: 107.2 x10_2/uL
  ALP: 1617.4 IU/L
  ALT: 47.4 IU/L
  AST: 68.8 IU/L
  BUN: 22.8 mg/dL
  CRE: 0.2 mg/dL
  DBIL: 0.014 mg/dL
  GLC: 176.6 mg/dL
  IP: 6.3 mg/dL
  K: 3.6 meq/L
  Na: 141.4 meq/L
  PL: 174 mg/dL
  RALB: 2.6 g/dL
  TBIL: 0.054 mg/dL
  TC: 90 mg/dL
  TG: 65 mg/dL
  TP: 5.6 g/dL
  gamma-GTP: 0.4 IU/L
[…], time 7 day
  TERMINAL_BW: 247.4 g
  APTT: 17.5 s
  Bas: 0.4%
  Eos: 1.2%
  Fbg: 278 mg/dL
  Hb: 14.1 g/dL
  Ht: 40.4%
  Lym: 82%
  MCH: 20.8 pg
  MCHC: 34.9%
  MCV: 59.7 fL
  Mono: 1.8%
  Neu: 13.8%
  PT: 16 s
  Plat: 114.3 x10_4/uL
  RBC: 678.6 x10_4/ul
  Ret: 4.3%
  WBC: 110.3 x10_2/uL
  ALP: 1748.4 IU/L
  ALT: 43.8 IU/L
  AST: 73.4 IU/L
  BUN: 17.8 mg/dL
  CRE: 0.2 mg/dL
  DBIL: 0.012 mg/dL
  GLC: 179 mg/dL
  IP: 6.2 mg/dL
  K: 3.8 meq/L
  Na: 142.4 meq/L
  PL: 152 mg/dL
  RALB: 2.6 g/dL
  TBIL: 0.044 mg/dL
  TC: 71.4 mg/dL
  TG: 84.4 mg/dL
  TP: 5.7 g/dL
  gamma-GTP: 0.2 IU/L
[…], time 14 day
  TERMINAL_BW: 311 g
  APTT: 16.7 s
  Bas: 0.6%
  Eos: 1%
  Fbg: 253.8 mg/dL
  Hb: 14.7 g/dL
  Ht: 42.1%
  Lym: 82.2%
  MCH: 20.5 pg
  MCHC: 34.9%
  MCV: 58.6 fL
  Mono: 2%
  Neu: 13.2%
  PT: 15.7 s
  Plat: 108.7 x10_4/uL
  RBC: 717.4 x10_4/ul
  Ret: 3.8%
  WBC: 124.3 x10_2/uL
  ALP: 1743.4 IU/L
  ALT: 44.2 IU/L
  AST: 78.6 IU/L
  BUN: 24.6 mg/dL
  CRE: 0.2 mg/dL
  DBIL: 0.016 mg/dL
  GLC: 177 mg/dL
  IP: 6.5 mg/dL
  K: 3.7 meq/L
  Na: 143.8 meq/L
  PL: 160.6 mg/dL
  RALB: 2.6 g/dL
  TBIL: 0.048 mg/dL
  TC: 78.4 mg/dL
  TG: 107.6 mg/dL
  TP: 5.7 g/dL
  gamma-GTP: 0.6 IU/L
[…], time 28 day
  TERMINAL_BW: 380.8 g
  APTT: 17.5 s
  Bas: 1%
  Eos: 1%
  Fbg: 251.8 mg/dL
  Hb: 14.7 g/dL
  Ht: 42.7%
  Lym: 80%
  MCH: 19.2 pg
  MCHC: 34.5%
  MCV: 55.6 fL
  Mono: 1.6%
  Neu: 16.2%
  PT: 15.7 s
  Plat: 98.3 x10_4/uL
  RBC: 769.2 x10_4/ul
  Ret: 2.5%
  WBC: 125.7 x10_2/uL
  ALP: 1073.6 IU/L
  ALT: 42.8 IU/L
  AST: 70.4 IU/L
  BUN: 24 mg/dL
  CRE: 0.2 mg/dL
  DBIL: 0.02 mg/dL
  GLC: 178.2 mg/dL
  IP: 5.7 mg/dL
  K: 3.7 meq/L
  Na: 144.8 meq/L
  PL: 143.4 mg/dL
  RALB: 2.6 g/dL
  TBIL: 0.052 mg/dL
  TC: 66 mg/dL
  TG: 109.2 mg/dL
  TP: 6 g/dL
  gamma-GTP: 0.4 IU/L
